PubChem BioAssay AID1919000 (Molecular Pharmacology Branch, DTP, NCI, 2023)
pIC50: −log10 of the molar value. Values joined by “and” are separate entries in the source; they are usually repeats but may differ in a detail not shown here. Equal entries are not always repeated. One block for each compound: values may come before it.

Tested on: 653999-131-R-J2-PDC complex spheroids, growth % test/control
Experiment: Anticancer human tumor 653999-131-R-J2-PDC patient-derived lung adenocarcinoma cell line growth inhibition [AhR]
Conditions: for viability, T/C: stronger effect = lower value
Procedure, shortened: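 Agents were dosed in half-log steps down from roughly clinical Cmax, or from 10 microM where Cmax was unknown, alone and with AhR antagonists. Read-out: percent test/control growth of tumor spheroids containing HUVEC and MSC stromal cells.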

[1] = curve of first compound, second compound 0.1 µM
[2] = curve of first compound, second compound 0.316 µM
[3] = curve of first compound, second compound 1 µM
[4] = curve of first compound, second compound 3.16 µM
[5] = curve of first compound, second compound 10 µM
[6] = second compound 0.1 µM, first compound 0.000316 µM
[7] = second compound 0.1 µM, first compound 0.001 µM
[8] = second compound 0.1 µM, first compound 0.00316 µM
[9] = second compound 0.1 µM, first compound 0.01 µM
[10] = second compound 0.1 µM, first compound 0.0316 µM
[11] = second compound 0.1 µM, first compound 0.1 µM
[12] = second compound 0.316 µM, first compound 0.000316 µM
[13] = second compound 0.316 µM, first compound 0.001 µM
[14] = second compound 0.316 µM, first compound 0.00316 µM
[15] = second compound 0.316 µM, first compound 0.01 µM
[16] = second compound 0.316 µM, first compound 0.0316 µM
[17] = second compound 0.316 µM, first compound 0.1 µM
[18] = second compound 1 µM, first compound 0.000316 µM
[19] = second compound 1 µM, first compound 0.001 µM
[20] = second compound 1 µM, first compound 0.00316 µM
[21] = second compound 1 µM, first compound 0.01 µM
[22] = second compound 1 µM, first compound 0.0316 µM
[23] = second compound 1 µM, first compound 0.1 µM
[24] = second compound 3.16 µM, first compound 0.000316 µM
[25] = second compound 3.16 µM, first compound 0.001 µM
[26] = second compound 3.16 µM, first compound 0.00316 µM
[27] = second compound 3.16 µM, first compound 0.01 µM
[28] = second compound 3.16 µM, first compound 0.0316 µM
[29] = second compound 3.16 µM, first compound 0.1 µM
[30] = second compound 10 µM, first compound 0.000316 µM
[31] = second compound 10 µM, first compound 0.001 µM
[32] = second compound 10 µM, first compound 0.00316 µM
[33] = second compound 10 µM, first compound 0.01 µM
[34] = second compound 10 µM, first compound 0.0316 µM
[35] = second compound 10 µM, first compound 0.1 µM
[36] = second compound 0.1 µM, first compound 0.316 µM
[37] = second compound 0.1 µM, first compound 1 µM
[38] = second compound 0.316 µM, first compound 0.316 µM
[39] = second compound 0.316 µM, first compound 1 µM
[40] = second compound 1 µM, first compound 0.316 µM
[41] = second compound 1 µM, first compound 1 µM
[42] = second compound 3.16 µM, first compound 0.316 µM
[43] = second compound 3.16 µM, first compound 1 µM
[44] = second compound 10 µM, first compound 0.316 µM
[45] = second compound 10 µM, first compound 1 µM
[46] = second compound 0.1 µM, first compound 3.16 µM
[47] = second compound 0.1 µM, first compound 10 µM
[48] = second compound 0.316 µM, first compound 3.16 µM
[49] = second compound 0.316 µM, first compound 10 µM
[50] = second compound 1 µM, first compound 3.16 µM
[51] = second compound 1 µM, first compound 10 µM
[52] = second compound 3.16 µM, first compound 3.16 µM
[53] = second compound 3.16 µM, first compound 10 µM
[54] = second compound 10 µM, first compound 3.16 µM
[55] = second compound 10 µM, first compound 10 µM
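Also: spheroids exposed to agents for seven days.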
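For viability, T/C in this document: 100% = DMSO vehicle control viability.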

SMILES: Cn1ncnc1C1c2n[nH]c(=O)c3cc(F)cc(c23)NC1c1ccc(F)cc1 (configuration not stated) + Cc1ccccc1N=Nc1ccc(NC(=O)c2ccnn2C)c(C)c1
pIC50 [1]: < 7.00
pIC50 [2]: < 7.00
pIC50 [3]: < 7.00
pIC50 [4]: < 7.00
pIC50 [5]: < 7.00
viability, T/C [6]: 106%
viability, T/C [7]: 84.6%
viability, T/C [8]: 102%
viability, T/C [9]: 92.3%
viability, T/C [10]: 99.9%
viability, T/C [11]: 98%
viability, T/C [12]: 94.3%
viability, T/C [13]: 111%
viability, T/C [14]: 104%
viability, T/C [15]: 95%
viability, T/C [16]: 91.5%
viability, T/C [17]: 92.8%
viability, T/C [18]: 103%
viability, T/C [19]: 96.7%
viability, T/C [20]: 104%
viability, T/C [21]: 108%
viability, T/C [22]: 93.3%
viability, T/C [23]: 95.6%
viability, T/C [24]: 93.4%
viability, T/C [25]: 105%
viability, T/C [26]: 106%
viability, T/C [27]: 94.9%
viability, T/C [28]: 101%
viability, T/C [29]: 103%
viability, T/C [30]: 86.2%
viability, T/C [31]: 104%
viability, T/C [32]: 106%
viability, T/C [33]: 95%
viability, T/C [34]: 109%
viability, T/C [35]: 87.3%

SMILES: CC1COCCN1c1cc(-c2ccnn2C)c2ccnc(-c3ccn[nH]3)c2n1 (configuration not stated) + CC(CO)NC(=O)c1cc(-c2ccc(Cl)cc2)nn(-c2cnn(C)c2)c1=O
pIC50 [1]: 6.79
pIC50 [2]: 6.87
pIC50 [3]: 6.77
pIC50 [4]: 7.00
pIC50 [5]: 7.27
viability, T/C [8]: 102%
viability, T/C [9]: 101%
viability, T/C [10]: 94%
viability, T/C [11]: 60.2%
viability, T/C [36]: 36.4%
viability, T/C [37]: 28.4%
viability, T/C [14]: 103%
viability, T/C [15]: 103%
viability, T/C [16]: 76.1%
viability, T/C [17]: 56.5%
viability, T/C [38]: 36.3%
viability, T/C [39]: 27.9%
viability, T/C [20]: 97.3%
viability, T/C [21]: 105%
viability, T/C [22]: 80.6%
viability, T/C [23]: 60.1%
viability, T/C [40]: 39.5%
viability, T/C [41]: 30.4%
viability, T/C [26]: 94%
viability, T/C [27]: 97.7%
viability, T/C [28]: 89.9%
viability, T/C [29]: 49.9%
viability, T/C [42]: 35.6%
viability, T/C [43]: 32.9%
viability, T/C [32]: 92.3%
viability, T/C [33]: 86.4%
viability, T/C [34]: 57%
viability, T/C [35]: 41.5%
viability, T/C [44]: 30.7%
viability, T/C [45]: 29.2%

SMILES: CC1COCCN1c1cc(-c2ccnn2C)c2ccnc(-c3ccn[nH]3)c2n1 (configuration not stated) + Cc1cncc(-c2nc(NCCc3c[nH]c4ccccc34)c3ncn(C(C)C)c3n2)c1
pIC50 [1]: 6.91
pIC50 [2]: 6.89
pIC50 [3]: 6.77
pIC50 [4]: 6.83
pIC50 [5]: > 8.50
viability, T/C [8]: 100%
viability, T/C [9]: 94.6%
viability, T/C [10]: 76.3%
viability, T/C [11]: 52.3%
viability, T/C [36]: 36.7%
viability, T/C [37]: 25.2%
viability, T/C [14]: 92.8%
viability, T/C [15]: 92.4%
viability, T/C [16]: 84.8%
viability, T/C [17]: 53.5%
viability, T/C [38]: 35.5%
viability, T/C [39]: 26.4%
viability, T/C [20]: 107%
viability, T/C [21]: 96.3%
viability, T/C [22]: 89.5%
viability, T/C [23]: 65.6%
viability, T/C [40]: 31.6%
viability, T/C [41]: 23.5%
viability, T/C [26]: 98.2%
viability, T/C [27]: 98.1%
viability, T/C [28]: 89.6%
viability, T/C [29]: 56.2%
viability, T/C [42]: 38.5%
viability, T/C [43]: 29.1%
viability, T/C [32]: 36.8%
viability, T/C [33]: 46.9%
viability, T/C [34]: 38%
viability, T/C [35]: 34.6%
viability, T/C [44]: 25.7%
viability, T/C [45]: 27%

Continued, in another order:

pIC50 [1]: < 7.00
pIC50 [2]: < 7.00
pIC50 [3]: < 7.00
pIC50 [4]: < 7.00
pIC50 [5]: < 7.00
SMILES: Cn1ncnc1C1c2n[nH]c(=O)c3cc(F)cc(c23)NC1c1ccc(F)cc1 (configuration not stated) + Cc1cncc(-c2nc(NCCc3c[nH]c4ccccc34)c3ncn(C(C)C)c3n2)c1
viability, T/C [6]: 96%
viability, T/C [7]: 96.2%
viability, T/C [8]: 97.4%
viability, T/C [9]: 84.8%
viability, T/C [10]: 86.6%
viability, T/C [11]: 85.6%
viability, T/C [12]: 97.9%
viability, T/C [13]: 92.5%
viability, T/C [14]: 94.3%
viability, T/C [15]: 90.6%
viability, T/C [16]: 85.6%
viability, T/C [17]: 86.5%
viability, T/C [18]: 104%
viability, T/C [19]: 113%
viability, T/C [20]: 104%
viability, T/C [21]: 101%
viability, T/C [22]: 103%
viability, T/C [23]: 94%
viability, T/C [24]: 122%
viability, T/C [25]: 99.5%
viability, T/C [26]: 104%
viability, T/C [27]: 93.7%
viability, T/C [28]: 100%
viability, T/C [29]: 98.2%
viability, T/C [30]: 52.4%
viability, T/C [31]: 55.5%
viability, T/C [32]: 62%
viability, T/C [33]: 56%
viability, T/C [34]: 47.5%
viability, T/C [35]: 58.3%

pIC50 [1]: 6.87
pIC50 [2]: 6.91
pIC50 [3]: 6.84
pIC50 [4]: 6.78
pIC50 [5]: 6.88
SMILES: COc1cccc2c1C(=O)c1c(O)c3c(c(O)c1C2=O)CC(O)(C(=O)CO)CC3OC1CC(N)C(O)C(C)O1 (configuration not stated) + CC(CO)NC(=O)c1cc(-c2ccc(Cl)cc2)nn(-c2cnn(C)c2)c1=O
viability, T/C [10]: 60.7%
viability, T/C [11]: 53%
viability, T/C [36]: 35%
viability, T/C [37]: 11.7%
viability, T/C [46]: 6.06%
viability, T/C [47]: 19.9%
viability, T/C [16]: 62.3%
viability, T/C [17]: 52.8%
viability, T/C [38]: 31.1%
viability, T/C [39]: 10.4%
viability, T/C [48]: 4.91%
viability, T/C [49]: 20.9%
viability, T/C [22]: 71%
viability, T/C [23]: 57%
viability, T/C [40]: 33%
viability, T/C [41]: 11.2%
viability, T/C [50]: 4.47%
viability, T/C [51]: 18.9%
viability, T/C [28]: 62.9%
viability, T/C [29]: 49.5%
viability, T/C [42]: 42.3%
viability, T/C [43]: 6.87%
viability, T/C [52]: 7.41%
viability, T/C [53]: 20.7%
viability, T/C [34]: 73.4%
viability, T/C [35]: 54.6%
viability, T/C [44]: 31.8%
viability, T/C [45]: 5.67%
viability, T/C [54]: 9.25%
viability, T/C [55]: 21.4%

pIC50 (curve of compound): 7.18 and 7.19 and 6.88
SMILES: COc1cccc2c1C(=O)c1c(O)c3c(c(O)c1C2=O)CC(O)(C(=O)CO)CC3OC1CC(N)C(O)C(C)O1 (configuration not stated)
viability, T/C (compound 0.0316 µM): 62.4% and 56% and 66.2%
viability, T/C (compound 0.1 µM): 40.9% and 45.6% and 56.4%
viability, T/C (compound 0.316 µM): 28.3% and 26.5% and 28.1%
viability, T/C (compound 1 µM): 7.89% and 10.5% and 10.6%
viability, T/C (compound 3.16 µM): 3.94% and 7.29% and 3.85%
viability, T/C (compound 10 µM): 10.6% and 20.5% and 19.3%

pIC50 [1]: < 5.00
pIC50 [2]: < 5.00
pIC50 [3]: < 5.00
pIC50 [4]: < 5.00
pIC50 [5]: 5.52
SMILES: O=C(c1cc(Cc2n[nH]c(=O)c3ccccc23)ccc1F)N1CCN(C(=O)C2CC2)CC1 + Cc1cncc(-c2nc(NCCc3c[nH]c4ccccc34)c3ncn(C(C)C)c3n2)c1
viability, T/C [10]: 99.2%
viability, T/C [11]: 101%
viability, T/C [36]: 92.2%
viability, T/C [37]: 94%
viability, T/C [46]: 97.7%
viability, T/C [47]: 79.3%
viability, T/C [16]: 96.2%
viability, T/C [17]: 106%
viability, T/C [38]: 97.1%
viability, T/C [39]: 102%
viability, T/C [48]: 91.5%
viability, T/C [49]: 86.3%
viability, T/C [22]: 108%
viability, T/C [23]: 114%
viability, T/C [40]: 112%
viability, T/C [41]: 103%
viability, T/C [50]: 96.9%
viability, T/C [51]: 91.3%
viability, T/C [28]: 102%
viability, T/C [29]: 109%
viability, T/C [42]: 112%
viability, T/C [43]: 114%
viability, T/C [52]: 101%
viability, T/C [53]: 91.3%
viability, T/C [34]: 61.2%
viability, T/C [35]: 61.1%
viability, T/C [44]: 55.1%
viability, T/C [45]: 55.5%
viability, T/C [54]: 49.3%
viability, T/C [55]: 44.7%
